In US4302465A, “Therapeutically active, substituted piperidines and pyrrolidines therapeutic compositions thereof and methods of use thereof” (priority 1979, dated 1981):
Several values for one entry are separate records, joined by “and”; a condition that tells them apart may be missing. Equal entries are not always repeated.

Columns and labels:
in vivo [1] = conditions: mouse
[2] = test system: arrhythmic heart-beats induced by ouabain; test: Effect against arrhythmic heart-beats induced by ouabain in anaesthetized dogs; type: in vivo; conditions: for Duration of regularization / Number of regularized arrhythmias (percent) / Number of regularized arrhythmias: ouabain; for Number of regularized arrhythmias: count
guinea pigs = test: Local anaesthetic effect in guinea pigs after intracutaneous infiltration; type: in vivo; conditions: for Duration of Anaesthesia: 1.0% + adrenaline 5 μg/ml, 12 animals
sciatic nerve = test: Local anaesthetic effect in rats after perineuronal injection close to the sciatic nerve; type: in vivo; conditions: for Duration of anaesthesia, Motoric Blockage / Duration of anaesthesia, Sensory Blockage: 1.0% + adr. 5 μg/ml, 10 animals, perineuronal, sciatic nerve
in vivo [3] = conditions: rat, iv
rabbits = conditions: rabbit, in vivo

Compound	LD50 (in vivo [1]) [mg/kg]	effect against arrhythmic heart-beats induced by ouabain, in words [2]	Duration of regularization ([2]; dose 1.0 mg/kg) [min]	Number of regularized arrhythmias (percent) ([2]; dose 1.0 mg/kg) [%]	Number of regularized arrhythmias ([2]; dose 1.0 mg/kg)	Duration of regularization ([2]; dose 2.0 mg/kg) [min]	Number of regularized arrhythmias (percent) ([2]; dose 2.0 mg/kg)	Number of regularized arrhythmias ([2]; dose 2.0 mg/kg)	local anaesthetic effect, in words (guinea pigs)	Duration of Anaesthesia (guinea pigs) [min]	Duration of anaesthesia, Motoric Blockage (sciatic nerve) [min]	Duration of anaesthesia, Sensory Blockage (sciatic nerve) [min]	local anaesthetic effect, in words (sciatic nerve; perineuronal injection close to the sciatic nerve)	TD50 (in vivo [3]) [mg/kg]	tissue irritation, in words (rabbits)	LD50 (in vivo [1]; iv) [mg/kg]
Cc1cccc(C)c1NC(=O)C1CCCCN1CCO (racemic) [Substance S-1249, DL-N-(2-hydroxyethyl)pipecolinyl-2,6-dimethylanilide]	57	effects equivalent to lidocaine and better than mepivacaine	130 ± 40	65	13	280 ± 70	70%	17	local anaesthetic effect of the same order of magnitude as lidocaine and mepivacaine	140 ± 8	83 ± 6	82 ± 6	equivalent local anaesthetic effect to lidocaine and mepivacaine	103 ± 8	considerably less tissue irritation	
CCN(CC)CC(=O)Nc1c(C)cccc1C [Lidocaine, lidocaine, reference compound]				60	12	220 ± 30	79%	19		132 ± 7	79 ± 5	77 ± 5				
Cc1cccc(C)c1NC(=O)C1CCCCN1C (centres unmarked) [Mepivacaine, mepivacaine, reference compound]	31		110 ± 20	50	5	185 ± 50	50% and 60%	6		152 ± 16	89 ± 4	87 ± 4		38 ± 3		31
Cc1cccc(C)c1NC(=O)C1CCCC[N+]1(C)CCO (centres unmarked) [N-methyl-S-1249, N(quaternary-2-hydroxyethyl-N-methyl)pipecolinyl-2,6-dimethylanilide]		rhythm-regularizing effects	180 ± 30	100	4	310 ± 50	100%	4	local anaesthetic effect	128 ± 12				125		84
Cc1cccc(C)c1NC(=O)[C@@H]1CCCN1CCO [Substance S-1258, L-N-(2-hydroxyethyl)prolyl-2,6-dimethylanilide]		effective against arrhythmic heartbeats induced by ouabain	95 ± 20	83	5	195 ± 40	67%	4	better local anaesthetic effect than lidocaine	111 ± 8				130 ± 10		110
Cc1cccc(C)c1NC(=O)C1CCCCN1CCCO (centres unmarked) [Substance S-1265, N-(3-Hydroxypropyl)pipecolinyl-2,6-dimethylanilide]		effects equivalent to lidocaine and mepivacaine	120 ± 30	67	4	200 ± 40	83%	5	better local anaesthetic effect than lidocaine	151 ± 6				80 ± 4		40
